Results as given in the CheMixHub viscosity set.
± gives the uncertainty stated by the source.

Assay: xn = mol fraction of the nth substance listed

CCOCC + CCCCO
303.16 K, 101 kPa
Conditions	viscosity [mPa·s]
x1 = 0.09	1.958 ± 0.47
x1 = 0.17	1.512 ± 0.37
x1 = 0.27	0.9582 ± 0.25
x1 = 0.4	0.8084 ± 0.21
x1 = 0.51	0.6978 ± 0.19
x1 = 0.6	0.5936 ± 0.16
x1 = 0.67	0.4746 ± 0.14
x1 = 0.74	0.3798 ± 0.12
x1 = 0.81	0.291 ± 0.097

CC(=O)CC(C)C + CCCCOC(C)=O
298.15 K, 101.33 kPa
Conditions	viscosity [mPa·s]
x1 = 0.128	0.66 ± 0.007
x1 = 0.2471	0.643 ± 0.007
x1 = 0.3594	0.628 ± 0.006
x1 = 0.4715	0.612 ± 0.006
x1 = 0.5881	0.595 ± 0.006
x1 = 0.6863	0.583 ± 0.006
x1 = 0.7901	0.57 ± 0.006
x1 = 0.8902	0.556 ± 0.006

O=C1CCCCC1 + CCCCOC(C)=O
viscosity [mPa·s], 101 kPa
Conditions	298.15 K	303.15 K	308.15 K	313.15 K
x1 = 0.1162	0.689 ± 0.006	–	–	–
x1 = 0.2283	0.732 ± 0.006	–	–	–
x1 = 0.3365	0.788 ± 0.007	–	–	–
x1 = 0.441	0.871 ± 0.007	–	–	–
x1 = 0.542	0.976 ± 0.008	–	–	–
x1 = 0.6397	1.109 ± 0.009	–	–	–
x1 = 0.7341	1.281 ± 0.01	–	–	–
x1 = 0.8256	1.478 ± 0.011	–	–	–
x1 = 0.9142	1.731 ± 0.013	–	–	–
x2 = 0.0814	1.757 ± 0.023	1.589 ± 0.021	1.445 ± 0.019	1.321 ± 0.017
x2 = 0.165	1.536 ± 0.021	1.393 ± 0.019	1.274 ± 0.017	1.166 ± 0.015
x2 = 0.2509	1.362 ± 0.019	1.235 ± 0.017	1.137 ± 0.015	1.045 ± 0.014
x2 = 0.3438	1.214 ± 0.017	1.101 ± 0.015	1.016 ± 0.014	0.934 ± 0.013
x2 = 0.4391	1.099 ± 0.015	0.999 ± 0.014	0.922 ± 0.013	0.852 ± 0.012
x2 = 0.5412	0.995 ± 0.014	0.904 ± 0.013	0.838 ± 0.012	0.775 ± 0.011
x2 = 0.6451	0.914 ± 0.013	0.83 ± 0.012	0.774 ± 0.011	0.715 ± 0.01
x2 = 0.7589	0.836 ± 0.013	0.763 ± 0.011	0.711 ± 0.011	0.66 ± 0.01
x2 = 0.8707	0.767 ± 0.012	0.7 ± 0.011	0.658 ± 0.01	0.61 ± 0.009

CCOCC + CCCO
101 kPa
Conditions	viscosity [mPa·s]
298.15 K, x1 = 0.09896	1.404 ± 0.014
298.15 K, x1 = 0.1949	1.024 ± 0.01
298.15 K, x1 = 0.3032	0.753 ± 0.0078
298.15 K, x1 = 0.4198	0.562 ± 0.0058
298.15 K, x1 = 0.5476	0.427 ± 0.0044
298.15 K, x1 = 0.6864	0.336 ± 0.0035
298.15 K, x1 = 0.8353	0.272 ± 0.0028
303.16 K, x1 = 0.07	1.682 ± 0.2
303.16 K, x1 = 0.15	1.591 ± 0.19
303.16 K, x1 = 0.25	1.417 ± 0.17
303.16 K, x1 = 0.37	1.237 ± 0.15
303.16 K, x1 = 0.47	0.8879 ± 0.12
303.16 K, x1 = 0.59	0.6163 ± 0.085
303.16 K, x1 = 0.73	0.4922 ± 0.071
303.16 K, x1 = 0.78	0.3645 ± 0.057
303.16 K, x1 = 0.92	0.2804 ± 0.047

O=C1CCCCC1 + CCCO
303.15 K, 101 kPa
Conditions	viscosity [mPa·s]
x1 = 0.1012	1.452 ± 0.011
x1 = 0.2601	1.283 ± 0.01
x1 = 0.4199	1.243 ± 0.01
x1 = 0.5794	1.3 ± 0.011
x1 = 0.7393	1.392 ± 0.012
x1 = 0.8997	1.576 ± 0.014

CCCCCCO + CCO
Conditions	viscosity [mPa·s]
298.15 K, 101.33 kPa, x2 = 0.1094	4.001 ± 0.037
298.15 K, 101.33 kPa, x2 = 0.2099	3.537 ± 0.034
298.15 K, 101.33 kPa, x2 = 0.3973	2.828 ± 0.029
298.15 K, 101.33 kPa, x2 = 0.5015	2.484 ± 0.027
298.15 K, 101.33 kPa, x2 = 0.5903	2.214 ± 0.025
298.15 K, 101.33 kPa, x2 = 0.6925	1.894 ± 0.023
298.15 K, 101.33 kPa, x2 = 0.8012	1.574 ± 0.021
298.15 K, 101.33 kPa, x2 = 0.899	1.305 ± 0.019
303.15 K, 101 kPa, x2 = 0.1433	3.364 ± 0.086
303.15 K, 101 kPa, x2 = 0.2814	2.887 ± 0.074
303.15 K, 101 kPa, x2 = 0.487	2.241 ± 0.058
303.15 K, 101 kPa, x2 = 0.6448	1.807 ± 0.046
303.15 K, 101 kPa, x2 = 0.7691	1.509 ± 0.039
303.15 K, 101 kPa, x2 = 0.8692	1.28 ± 0.033
303.15 K, 101 kPa, x2 = 0.9524	1.093 ± 0.028

CCOCC + CCO
298.15 K, 101 kPa
Conditions	viscosity [mPa·s]
x1 = 0.1577	0.741 ± 0.0076
x1 = 0.3593	0.478 ± 0.005
x1 = 0.4569	0.4 ± 0.0042
x1 = 0.5301	0.359 ± 0.0037
x1 = 0.6268	0.315 ± 0.0033
x1 = 0.6925	0.29 ± 0.003
x1 = 0.7978	0.264 ± 0.0028

CCS + CCO
298.15 K, 101 kPa
Conditions	viscosity [mPa·s]
x1 = 0.026	1.048 ± 0.008
x1 = 0.072	0.9731 ± 0.0074
x1 = 0.0942	0.9305 ± 0.0071
x1 = 0.1067	0.8559 ± 0.0065
x1 = 0.1258	0.8385 ± 0.0064
x1 = 0.2634	0.6525 ± 0.0051
x1 = 0.2941	0.6119 ± 0.0048
x1 = 0.3753	0.5821 ± 0.0047
x1 = 0.6123	0.4083 ± 0.0035

O=C1CCCCC1 + CCOC(=O)OCC
viscosity [mPa·s], 101 kPa
Conditions	x2 = 0.0898	x2 = 0.1505	x2 = 0.2556	x2 = 0.3587	x2 = 0.4619	x2 = 0.5665	x2 = 0.6701	x2 = 0.7601	x2 = 0.8945	x2 = 0.9487
303.15 K	1.626 ± 0.042	1.498 ± 0.039	1.321 ± 0.035	1.156 ± 0.031	1.028 ± 0.027	0.911 ± 0.025	0.825 ± 0.023	0.768 ± 0.021	0.719 ± 0.02	0.708 ± 0.02
308.15 K	1.479 ± 0.038	1.37 ± 0.036	1.202 ± 0.032	1.056 ± 0.028	0.937 ± 0.025	0.837 ± 0.023	0.759 ± 0.021	0.711 ± 0.02	0.669 ± 0.019	0.658 ± 0.018
313.15 K	1.375 ± 0.036	1.274 ± 0.033	1.116 ± 0.029	0.981 ± 0.026	0.873 ± 0.024	0.784 ± 0.021	0.714 ± 0.02	0.668 ± 0.019	0.626 ± 0.018	0.617 ± 0.017

CC(=O)CC(C)C + CCOCCO
298.15 K, 101.33 kPa
Conditions	viscosity [mPa·s]
x1 = 0.1481	1.043 ± 0.01
x1 = 0.2727	0.943 ± 0.009
x1 = 0.3972	0.854 ± 0.008
x1 = 0.511	0.782 ± 0.008
x1 = 0.6235	0.718 ± 0.007
x1 = 0.7252	0.664 ± 0.007
x1 = 0.824	0.617 ± 0.006
x1 = 0.8892	0.588 ± 0.006

CCC(C)N (configuration not stated) + CCOCCO
308.15 K, 101 kPa
Conditions	viscosity [mPa·s]
x2 = 0.1045	0.5211 ± 0.054
x2 = 0.208	0.6419 ± 0.066
x2 = 0.3105	0.7668 ± 0.079
x2 = 0.412	0.8957 ± 0.092
x2 = 0.5124	1.016 ± 0.1
x2 = 0.6188	1.13 ± 0.12
x2 = 0.7103	1.217 ± 0.12
x2 = 0.8078	1.304 ± 0.13
x2 = 0.9043	1.385 ± 0.14
